Assay: Inhibition of ribonuclease A

| Ki [µM] | SMILES |
| --- | --- |
| 11.3 | Nc1ncnc2c1ncn2[C@@H]1O[C@H](COP(=O)(O)OP(=O)(O)OC2CC(n3ccc(=O)[nH]c3=O)OC2CO)[C@@H](O)[C@H]1O (some centres not stated) |
| 0.027 | Nc1ncnc2c1ncn2[C@@H]1O[C@H](COP(=O)(O)OP(=O)(O)O[C@H]2C[C@H](n3ccc(=O)[nH]c3=O)O[C@@H]2COP(=O)(O)O)[C@@H](OP(=O)(O)O)[C@H]1O |
